Measurements published in ChEMBL document CHEMBL5512615, “Targeting autophagy drug discovery: Targets, indications and development trends” (Eur J Med Chem, 2024).
Where a SMILES comes first, the peptide text is derived from it. [ ]: non-standard residue; d: D form. pY = N[C@@H](Cc1ccc(OP(=O)(O)O)cc1)C(=O)O

Key:
[1] = target: T1, Testis-expressed protein 264 (Homo sapiens, UniProt Q9Y6I9)
T1 sequence (Q9Y6I9 whole entry): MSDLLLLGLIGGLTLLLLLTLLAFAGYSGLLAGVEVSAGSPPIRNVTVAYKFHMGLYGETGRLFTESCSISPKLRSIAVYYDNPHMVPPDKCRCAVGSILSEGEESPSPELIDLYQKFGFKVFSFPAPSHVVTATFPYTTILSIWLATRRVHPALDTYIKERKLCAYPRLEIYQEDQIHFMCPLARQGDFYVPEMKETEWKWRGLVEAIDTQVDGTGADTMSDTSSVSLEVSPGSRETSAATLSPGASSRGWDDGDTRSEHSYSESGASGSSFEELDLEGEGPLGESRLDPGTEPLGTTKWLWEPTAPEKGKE
Description: Inhibition of TEX264 (unknown origin)

cells [2] = conditions: Homo sapiens, NCI-H1975
Description: Inhibition of MAPK/ERK signaling pathway in human NCI-H1975 cells

Tubulin = conditions: k562
Description: Inhibition of microtubule polymerization in human K562 cells measured for 60 mins by fluorescence based analysis

[3] = target: T2, 5'-AMP-activated protein kinase catalytic subunit alpha-2 (Homo sapiens, UniProt P54646)
cells [4] = conditions: Homo sapiens, HK-2, 6 h
Description: Downregulation of BNIP3 expression in human HK-2 cells incubated for 6 hrs by Western blot analysis

HCT-116 = assay: cells; conditions: Homo sapiens, HCT-116, 24 h
Description: Induction of autophagy in human HCT-116 cells assessed as increase in p62 expression upto 5 uM incubated for 24 hrs by Western blot analysis

[5] = target: T2, 5'-AMP-activated protein kinase catalytic subunit alpha-2; remark: listed apart in the source
Description: Agonist activity at AMPK (unknown origin)

[6] = target: Phosphatidylinositol 3-kinase catalytic subunit type 3 (Homo sapiens, UniProt Q8NEB9)
Description: Inhibition of human PIK3C3 using PI as substrate by ADP-Glo assay

[7] = target: T3, Phosphatidylinositol 4,5-bisphosphate 3-kinase catalytic subunit alpha isoform (Homo sapiens, UniProt P42336)
Description: Inhibition of PI3Kalpha (unknown origin) by kinase profiling assay

Translocator protein [8] = target: T4, Translocator protein (Mus musculus, UniProt P50637); assay: Binding affinity to mouse TSPO expressed in Escherichia coli assessed as inhibition constant
[9] = target: T5, Tumour suppressor protein p53/Mdm4 (Homo sapiens, UniProt O15151+P04637)
Description: Binding affinity to MDM4/p53 interaction (unknown origin) assessed as inhibition constant

[10] = target: T5, Tumour suppressor protein p53/Mdm4; remark: listed apart in the source
Description: Inhibition of MDM4/p53 (unknown origin)

cells [11] = conditions: Homo sapiens, PC-3
Description: Inhibition of V-ATPase activity in lysosomes of human PC-3 cells

[12] = target: T2, 5'-AMP-activated protein kinase catalytic subunit alpha-2; remark: listed apart in the source
Description: Inhibition of AMPK signalling pathway in human HepG2 cells

[13] = target: Tumour suppressor p53/oncoprotein Mdm2 (Homo sapiens, UniProt P04637+Q00987)
Description: Inhibition of MDM2/p53 interaction (unknown origin)

[14] = target: T2, 5'-AMP-activated protein kinase catalytic subunit alpha-2; remark: listed apart in the source
Description: Binding affinity to AMPK (unknown origin) assessed as inhibition constant

Cysteine protease ATG4B = target: T6, Cysteine protease ATG4B (Homo sapiens, UniProt Q9Y4P1)
T6 sequence (Q9Y4P1 whole entry): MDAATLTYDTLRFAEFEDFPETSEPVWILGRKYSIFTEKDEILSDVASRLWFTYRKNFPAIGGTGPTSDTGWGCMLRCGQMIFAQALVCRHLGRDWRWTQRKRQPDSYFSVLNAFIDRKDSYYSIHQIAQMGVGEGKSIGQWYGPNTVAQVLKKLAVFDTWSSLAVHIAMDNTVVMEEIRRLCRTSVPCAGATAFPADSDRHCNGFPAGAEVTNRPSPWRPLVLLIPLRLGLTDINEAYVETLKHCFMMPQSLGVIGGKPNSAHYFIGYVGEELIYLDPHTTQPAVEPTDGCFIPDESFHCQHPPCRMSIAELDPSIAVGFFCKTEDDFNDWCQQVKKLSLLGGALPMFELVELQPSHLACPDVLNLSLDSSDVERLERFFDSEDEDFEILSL
Description: Inhibition of ATG4B (unknown origin) using pim-FG-PABA-AMC as substrate by fluorescence based assay

PC-12 = assay: cells; conditions: Rattus norvegicus
Description: Neuroprotective activity against rat PC12 cells assessed as decrease in H2O2-induced intracellular Ca2+ level preincubated for 12 hrs followed by H2O2-stimulation and measured after 12 hrs by Fluo-3 AM dye based flow cytometry

[15] = target: Serine/threonine-protein kinase mTOR (Homo sapiens, UniProt P42345)
Description: Inhibition of human mTORC1 incubated for 90 mins by Lanthascreen time-resolved FRET assay

Translocator protein [16] = target: Translocator protein (Rattus norvegicus, UniProt P16257)
[17] = target: T3, Phosphatidylinositol 4,5-bisphosphate 3-kinase catalytic subunit alpha isoform; remark: listed apart in the source
Description: Inhibition of PI3Kalpha (unknown origin)

Translocator protein [18] = target: T4, Translocator protein
[19] = target: T2, 5'-AMP-activated protein kinase catalytic subunit alpha-2; remark: listed apart in the source
Description: Inhibition of AMPK (unknown origin)

Compound O=C(Oc1cccc(/C=N/Nc2nc(Nc3ccccc3)nc(N3CCOCC3)n2)c1)c1ccco1 has an IC50 [1] of 10 nM.
With CC[C@@H]1[C@@H](C)O[C@@](O)([C@@H](C)[C@H](O)[C@H](C)[C@H]2OC(=O)/C=C/C=C/[C@H](C)[C@@H]([C@@H](C)[C@@H](O)[C@H](C)[C@@]3(O)C[C@@H](O[C@H]4C[C@H](O)[C@H](O)[C@H](C)O4)[C@H](CC)[C@@H](C)O3)OC(=O)/C=C/C=C/[C@@H]2C)C[C@H]1O[C@H]1C[C@H](O)[C@H](O)[C@H](C)O1 the IC50 (cells [2]) was 4.2 nM.
For CCOC(=O)c1[nH]c(Br)c(-c2ccc(OC)c(OC)c2)c1Br, the IC50 (Tubulin) was 360 nM.
CNC(=O)c1ccccc1Oc1nc(Nc2cc(OC)c(OC)c(OC)c2)ncc1Br showed an IC50 [3] of 108 nM.
With Cc1ccc(NC(=O)NCc2ccc3c(c2)CN(C2CCC(=O)NC2=O)C3=O)cc1Cl (stereo unspecified) the IC50 (cells [4]) was 2 nM.
For CC(=O)N[C@@H](CC(C)C)C(=O)N[C@@H](CC(C)C)C(=O)N[C@H](C=O)CCCNC(=N)N, the IC50 (HCT-116) was 2500 nM.
Work on N#CC1C(=O)Nc2scc(-c3ccc(-c4ccccc4O)cc3)c2C1=O (stereo unspecified) yielded an EC50 [5] of 800 nM.
Compound CN(Cc1ccccc1)S(=O)(=O)c1cc(C(=O)O)c(NCc2ccco2)cc1Cl has an IC50 [1] of 15 nM.
Work on CC(=O)O[C@H]1C(=O)[C@]2(C)[C@H](O)C[C@H]3OC[C@@]3(OC(C)=O)[C@H]2[C@H](OC(=O)c2ccccc2)[C@]2(O)C[C@H](OC(=O)[C@H](O)[C@@H](NC(=O)c3ccccc3)c3ccccc3)C(C)=C1C2(C)C yielded an IC50 (cells [2]) of 5 nM.
Work on C[C@@H]1COCCN1c1cc(N2CCCC[C@@H]2C(F)(F)F)[nH]c(=O)c1 yielded an IC50 [6] of 14 nM.
Compound BrNc1nc(N/N=C\c2c[nH]c3ccccc23)nc(N2CCOCC2)n1 has an IC50 (HCT-116) of 300 nM.
Work on OCc1c(C2CC2)nc2ccccc2c1-c1ccc(F)cc1 yielded an EC50 [5] of 300 nM.
For CC[C@H](C)[C@H](NC(=O)[C@H](CCCCN)NC(=O)[C@@H](NC(=O)[C@H](CCC(N)=O)NC(=O)[C@@H](N)CCCNC(=N)N)[C@@H](C)CC)C(=O)N[C@@H](Cc1c[nH]c2ccccc12)C(=O)N[C@@H](Cc1ccccc1)C(=O)N[C@@H](CCC(N)=O)C(=O)N[C@@H](CC(N)=O)C(=O)N[C@@H](CCCNC(=N)N)C(=O)N[C@@H](CCCNC(=N)N)C(=O)N[C@@H](CCSC)C(=O)N[C@@H](CCCCN)C(=O)N[C@@H](Cc1c[nH]c2ccccc12)C(=O)N[C@@H](CCCCN)C(=O)N[C@@H](CCCCN)C(=O)N[C@@H](CO)C(=O)N[C@@H](CC(=O)O)C(=O)NCC(=O)NCC(=O)N[C@@H](Cc1ccc(OP(=O)(O)O)cc1)C(=O)N[C@@H](CCSC)C(=O)N[C@@H](CC(=O)O)C(=O)N[C@@H](CCSC)C(=O)N[C@@H](CO)C(=O)O (H-RQIKIWFQNRRMKWKKSDGG[pY]MDMS-OH), the IC50 [7] was 30000 nM.
C=CC(C1=CC(=O)C(OC)=CC1=O)c1ccccc1 (stereo unspecified) [4-METHOXYDALBERGIONE] showed an IC50 (cells [2]) of 2230 nM.
Compound CC[C@@H](C)N(C)C(=O)c1cc2ccccc2c(-c2ccccc2Cl)n1 [(R)PK-11195] has a Ki (Translocator protein [8]) of 0.4 nM.
Compound CN(C)CC[C@H](CSc1ccccc1)Nc1ccc(S(=O)(=O)NC(=O)c2ccc(N3CCN(Cc4ccccc4-c4ccc(Cl)cc4)CC3)cc2)cc1[N+](=O)[O-] [ABT 737] has a Ki [9] of 0.8 nM.
In the case of COc1ccc(S(=O)(=O)Nc2cccnc2Nc2ccc(O)cc2)cc1 [ABT-751], the IC50 (Tubulin) is reported as 700 nM.
For C[C@]12CCC(=O)C=C1CC[C@@H]1[C@@H]2[C@@H](O)C[C@]2(C=O)[C@@H](C(=O)CO)CC[C@@H]12 [ALDOSTERONE], the EC50 [5] was 1.3 nM.
Work on C=CCS[S+]([O-])CC=C (stereo unspecified) [ALLICIN] yielded an IC50 [10] of 11 nM.
CO/C1=C\C(C)=C\[C@@H](C)[C@@H](O)[C@@H](C)C/C(C)=C/C=C/[C@H](OC)[C@@H]([C@@H](C)[C@@H](O)[C@H](C)[C@@]2(O)C[C@@H](O)[C@H](C)[C@@H](C(C)C)O2)OC1=O [BAFILOMYCIN A1] gave an IC50 (cells [11]) of 0.06 nM.
Compound COc1ccc2cc3[n+](cc2c1OC)CCc1cc2c(cc1-3)OCO2 [BERBERINE] has an IC50 [12] of 12000 nM.
CC(C)=CCC/C(C)=C/Cc1c(O)cc2c(c1O)C(=O)C[C@@H](c1ccc(O)cc1)O2 [BONANNIONE A] showed an IC50 [13] of 3700 nM.
C=C1C(=O)O[C@@H]2/C=C(\C)CC/C=C(\C)CC[C@@H]12 [COSTUNOLIDE] showed an IC50 (cells [2]) of 2100 nM.
c1cc(-c2cnn3cc(-c4ccc(OCCN5CCCCC5)cc4)cnc23)ccn1 [DORSOMORPHIN] showed a Ki [14] of 109 nM.
In the case of O=c1c2ccccc2[se]n1-c1ccccc1 [EBSELEN], the IC50 (Cysteine protease ATG4B) is reported as 180 nM.
With O=C(O[C@@H]1Cc2c(O)cc(O)cc2O[C@@H]1c1cc(O)c(O)c(O)c1)c1cc(O)c(O)c(O)c1 [EPIGALOCATECHIN GALLATE] the IC50 (PC-12) was 30 nM.
CO[C@H]1C[C@@H]2CC[C@@H](C)[C@@](O)(O2)C(=O)C(=O)N2CCCC[C@H]2C(=O)O[C@H]([C@H](C)C[C@@H]2CC[C@@H](OCCO)[C@H](OC)C2)CC(=O)[C@H](C)/C=C(\C)[C@@H](O)[C@@H](OC)C(=O)[C@H](C)C[C@H](C)/C=C/C=C/C=C/1C [EVEROLIMUS] gave an IC50 [15] of 150 nM.
Work on CCN(CCO)CCCC(C)Nc1ccnc2cc(Cl)ccc12 (stereo unspecified) [HYDROXYCHLOROQUINE] yielded an IC50 (cells [11]) of 0.21 nM.
For CC(C(O)c1ccc(O)cc1)N1CCC(Cc2ccccc2)CC1 (stereo unspecified) [IFENPRODIL], the IC50 (Translocator protein [16]) was 0.73 nM.
Compound O=C1C[C@@H](c2ccc(O)cc2)Oc2cc(O)ccc21 [LIQUIRTIGENIN] has an IC50 (Tubulin) of 340 nM.
For COC(=O)C1=C(C)NC(C)=C(C(=O)OC)C1c1ccccc1[N+](=O)[O-] [NIFEDIPINE], the IC50 (Translocator protein [16]) was 0.5 nM.
Compound COc1cc2c(cc1OC)-c1c(OC)c(OC)cc3ccnc(c13)C2=O [OXOGLAUCINE] has an IC50 (Translocator protein [16]) of 300 nM.
Cc1[nH]c2ccccc2c1CCNCc1ccc(/C=C/C(=O)NO)cc1 [PANOBINOSTAT] showed an IC50 [6] of 5 nM.
In the case of COc1ccc2cc1Oc1ccc(cc1)C[C@@H]1c3cc(c(OC)cc3CCN1C)Oc1c(OC)c(OC)cc3c1[C@@H](C2)N(C)CC3 [PHAEANTHINE], the IC50 [13] is reported as 179 nM.
For Oc1cc(O)c2c(c1)O[C@@]1(c3ccc(O)c(O)c3)Oc3cc(O)c4c(c3[C@@H]2[C@H]1O)O[C@H](c1ccc(O)c(O)c1)[C@@H](O)C4 [PROANTHOCYANIDIN A1], the EC50 [5] was 5100 nM.
For O=C(Nc1ccc(Oc2ccc(Cl)cc2)c(Cl)c1)c1cc(I)cc(I)c1O [RAFOXANIDE], the IC50 [17] was 13000 nM.
Oc1ccc(/C=C/c2cc(O)cc(O)c2)cc1 [RESVERATROL] gave an IC50 [3] of 50000 nM.
Work on Cc1nc(C(=O)NCC(=O)O)c(O)c2ccc(Oc3ccccc3)cc12 [ROXADUSTAT] yielded an IC50 (cells [4]) of 10 nM.
For COc1ccc(-c2cc(=O)c3c(OC)c(OC)c(OC)cc3o2)cc1OC [SINENSETIN], the IC50 [13] was 3200 nM.
Work on NCCCCNCCCN [SPERMIDINE] yielded an IC50 (cells [11]) of 112000 nM.
For Cn1nccc1Nc1nccc(-c2cc3c(s2)C(C)(C)N(CCN2CCOCC2)C3=O)n1 [TEMUTERKIB], the IC50 (cells [2]) was 5 nM.
Work on CC(C)(C)c1ccc(C(O)CCCN2CCC(C(O)(c3ccccc3)c3ccccc3)CC2)cc1 (stereo unspecified) [TERFENADINE] yielded an IC50 (Translocator protein [18]) of 1 nM.
Compound Clc1ccc(C(Cn2ccnc2)OCc2ccsc2Cl)c(Cl)c1 (stereo unspecified) [TIOCONAZOLE] has an IC50 (Cysteine protease ATG4B) of 1300 nM.
OC[C@H]1O[C@@H](Oc2ccc3c(c2)OC[C@H]2c4cc5c(cc4O[C@@H]32)OCO5)[C@H](O)[C@@H](O)[C@@H]1O [TRIFOLIRHIZIN] gave an IC50 [19] of 506000 nM.
CC(C)Nc1cc(-c2c[nH]c(C(=O)N[C@H](CO)c3cccc(Cl)c3)c2)c(Cl)cn1 [ULIXERTINIB] showed an IC50 (cells [2]) of 300 nM.
For C[C@H]1CCCC(=O)CCC/C=C/c2cc(O)cc(O)c2C(=O)O1 [ZEARALENONE], the IC50 (Translocator protein [18]) was 500 nM.
